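Results reflect a 48-hour exposure of cells in 96-well plates to compound at five concentrations. The concentration for full growth arrest is given as TGI.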
Key:
Experiment in all cases: inhibition of tumour cell growth, NCI panel, 48 h
786-0 renal = test system: 786-0 renal
A498 renal = test system: A498 renal
A549 NSCLC = test system: A549 NSCLC
ACHN renal = test system: ACHN renal
BT-549 breast = test system: BT-549 breast
CAKI-1 renal = test system: CAKI-1 renal
CCRF-CEM leukemia = test system: CCRF-CEM leukemia
COLO 205 colon = test system: COLO 205 colon
DU-145 prostate = test system: DU-145 prostate
EKVX NSCLC = test system: EKVX NSCLC
HCC-2998 colon = test system: HCC-2998 colon
HCT-116 colon = test system: HCT-116 colon
HCT-15 colon = test system: HCT-15 colon
HL-60(TB) leukemia = test system: HL-60(TB) leukemia
HOP-62 NSCLC = test system: HOP-62 NSCLC
HOP-92 NSCLC = test system: HOP-92 NSCLC
HS 578T breast = test system: HS 578T breast
HT29 colon = test system: HT29 colon
IGROV1 ovarian = test system: IGROV1 ovarian
K-562 leukemia = test system: K-562 leukemia
KM12 colon = test system: KM12 colon
LOX IMVI melanoma = test system: LOX IMVI melanoma
M14 melanoma = test system: M14 melanoma
MALME-3M melanoma = test system: MALME-3M melanoma
MCF7 breast = test system: MCF7 breast
MDA-MB-231 breast = test system: MDA-MB-231 breast
MDA-MB-435 = test system: MDA-MB-435
MDA-N = test system: MDA-N
MOLT-4 leukemia = test system: MOLT-4 leukemia
NCI-H226 lung = test system: NCI-H226 lung
NCI-H23 lung = test system: NCI-H23 lung
NCI-H460 lung = test system: NCI-H460 lung
NCI-H522 lung = test system: NCI-H522 lung
NCI/ADR-RES ovarian = test system: NCI/ADR-RES ovarian
OVCAR-3 ovarian = test system: OVCAR-3 ovarian
OVCAR-4 ovarian = test system: OVCAR-4 ovarian
OVCAR-5 ovarian = test system: OVCAR-5 ovarian
OVCAR-8 ovarian = test system: OVCAR-8 ovarian
PC-3 prostate = test system: PC-3 prostate
RPMI-8226 leukemia = test system: RPMI-8226 leukemia
RXF 393 renal = test system: RXF 393 renal
SF-268 CNS = test system: SF-268 CNS
SF-295 CNS = test system: SF-295 CNS
SF-539 CNS = test system: SF-539 CNS
SK-MEL-2 melanoma = test system: SK-MEL-2 melanoma
SK-MEL-28 melanoma = test system: SK-MEL-28 melanoma
SK-MEL-5 melanoma = test system: SK-MEL-5 melanoma
SK-OV-3 ovarian = test system: SK-OV-3 ovarian
SN12C renal = test system: SN12C renal
SNB-19 CNS = test system: SNB-19 CNS
SNB-75 CNS = test system: SNB-75 CNS
SR leukemia = test system: SR leukemia
SW-620 colon = test system: SW-620 colon
T-47D breast = test system: T-47D breast
TK-10 renal = test system: TK-10 renal
U251 CNS = test system: U251 CNS
UACC-257 melanoma = test system: UACC-257 melanoma
UACC-62 melanoma = test system: UACC-62 melanoma
UO-31 renal = test system: UO-31 renal
DMS 273 small cell lung = test system: DMS 273 small cell lung
HOP-18 NSCLC = test system: HOP-18 NSCLC
KM20L2 colon = test system: KM20L2 colon
LXFL 529 NSCLC = test system: LXFL 529 NSCLC
M19-MEL melanoma = test system: M19-MEL melanoma
SNB-78 CNS = test system: SNB-78 CNS
XF 498 CNS = test system: XF 498 CNS
DLD-1 colon = test system: DLD-1 colon
DMS 114 small cell lung = test system: DMS 114 small cell lung

For COC(=O)[C@H](C)NC(=O)C1(CNC(=O)[C@H](C)NC(=O)OC(C)(C)C)Cc2ccccc2-c2ccccc2C1, the TGI (786-0 renal) was 36.4 µM, the TGI (A498 renal) was > 71.1 µM and the TGI (A549 NSCLC) was 48.8 µM. For the same compound, the TGI (ACHN renal) was > 57.7 µM, the TGI (BT-549 breast) was > 70.3 µM and the TGI (CAKI-1 renal) was > 39.6 µM. For the same compound, the TGI (CCRF-CEM leukemia) was 43.9 µM, the TGI (COLO 205 colon) was 53.9 µM and the TGI (DU-145 prostate) was > 42.7 µM. For the same compound, the TGI (EKVX NSCLC) was 47 µM, the TGI (HCC-2998 colon) was > 59.8 µM and the TGI (HCT-116 colon) was > 54.1 µM. The TGI (HCT-15 colon) was 31.1 µM, the TGI (HL-60(TB) leukemia) was 39.5 µM and the TGI (HOP-62 NSCLC) was > 100 µM. The TGI (HOP-92 NSCLC) was 21.2 µM, the TGI (HS 578T breast) was > 60.1 µM and the TGI (HT29 colon) was 39.8 µM. It also gave a TGI (IGROV1 ovarian) of 33.2 µM, a TGI (K-562 leukemia) of 54 µM and a TGI (KM12 colon) of 40.2 µM. The TGI (LOX IMVI melanoma) was 9.13 µM, the TGI (M14 melanoma) was > 78.5 µM and the TGI (MALME-3M melanoma) was 36.1 µM. The TGI (MCF7 breast) was > 84.3 µM, the TGI (MDA-MB-231 breast) was 35.4 µM and the TGI (MDA-MB-435) was 38.2 µM. The TGI (MDA-N) was > 58.5 µM, the TGI (MOLT-4 leukemia) was 37.6 µM and the TGI (NCI-H226 lung) was 61.5 µM. The TGI (NCI-H23 lung) was 37.8 µM, the TGI (NCI-H460 lung) was 42.9 µM and the TGI (NCI-H522 lung) was 20.8 µM. For the same compound, the TGI (NCI/ADR-RES ovarian) was 41.4 µM, the TGI (OVCAR-3 ovarian) was 49.6 µM and the TGI (OVCAR-4 ovarian) was > 63.5 µM. The TGI (OVCAR-5 ovarian) was 41.1 µM, the TGI (OVCAR-8 ovarian) was 18.2 µM and the TGI (PC-3 prostate) was > 75.4 µM. For the same compound, the TGI (RPMI-8226 leukemia) was 23.9 µM, the TGI (RXF 393 renal) was > 88.9 µM and the TGI (SF-268 CNS) was 52.5 µM. The TGI (SF-295 CNS) was 51.6 µM, the TGI (SF-539 CNS) was > 58.1 µM and the TGI (SK-MEL-2 melanoma) was > 68.9 µM. For the same compound, the TGI (SK-MEL-28 melanoma) was > 70.6 µM, the TGI (SK-MEL-5 melanoma) was > 55 µM and the TGI (SK-OV-3 ovarian) was > 100 µM. For the same compound, the TGI (SN12C renal) was 34.6 µM, the TGI (SNB-19 CNS) was > 100 µM and the TGI (SNB-75 CNS) was > 60.2 µM. For the same compound, the TGI (SR leukemia) was 43.4 µM, the TGI (SW-620 colon) was > 64.3 µM and the TGI (T-47D breast) was > 62 µM. For the same compound, the TGI (TK-10 renal) was > 59.2 µM, the TGI (U251 CNS) was 36.5 µM and the TGI (UACC-257 melanoma) was > 78.9 µM. It also gave a TGI (UACC-62 melanoma) of 34 µM and a TGI (UO-31 renal) of 11.6 µM.

With O=C1C(Cl)=C(N2CCN(CCOCCO)CC2)C(=O)c2ccccc21 the TGI (786-0 renal) was 24 µM, the TGI (A498 renal) was 33.4 µM and the TGI (A549 NSCLC) was 34.2 µM. It also gave a TGI (ACHN renal) of 19.5 µM, a TGI (CAKI-1 renal) of 29.5 µM and a TGI (CCRF-CEM leukemia) of 7.27 µM. The TGI (COLO 205 colon) was 28.7 µM, the TGI (DMS 273 small cell lung) was 31.2 µM and the TGI (DU-145 prostate) was 34 µM. It also gave a TGI (EKVX NSCLC) of 32.3 µM, a TGI (HCC-2998 colon) of 32.1 µM and a TGI (HCT-116 colon) of 11.1 µM. The TGI (HCT-15 colon) was 24.4 µM, the TGI (HL-60(TB) leukemia) was 14 µM and the TGI (HOP-18 NSCLC) was 29.9 µM. The TGI (HOP-92 NSCLC) was 2.89 µM, the TGI (HS 578T breast) was 39.2 µM and the TGI (HT29 colon) was 30 µM. For the same compound, the TGI (IGROV1 ovarian) was 28.6 µM, the TGI (K-562 leukemia) was > 21.7 µM and the TGI (KM12 colon) was 31.6 µM. It also gave a TGI (KM20L2 colon) of 32.2 µM, a TGI (LOX IMVI melanoma) of 17.7 µM and a TGI (LXFL 529 NSCLC) of 3.37 µM. The TGI (M14 melanoma) was 22.6 µM, the TGI (M19-MEL melanoma) was 14.6 µM and the TGI (MALME-3M melanoma) was 15.2 µM. The TGI (MCF7 breast) was 14.4 µM, the TGI (MDA-MB-231 breast) was 17.9 µM and the TGI (MDA-MB-435) was 12.8 µM. For the same compound, the TGI (MDA-N) was 4.17 µM, the TGI (MOLT-4 leukemia) was 5.99 µM and the TGI (NCI-H226 lung) was 31 µM. It also gave a TGI (NCI-H23 lung) of 28 µM, a TGI (NCI-H460 lung) of 32.8 µM and a TGI (NCI-H522 lung) of 3.57 µM. It also gave a TGI (NCI/ADR-RES ovarian) of 25 µM, a TGI (OVCAR-3 ovarian) of 9.44 µM and a TGI (OVCAR-4 ovarian) of 6.26 µM. For the same compound, the TGI (OVCAR-5 ovarian) was 37.4 µM, the TGI (OVCAR-8 ovarian) was 28.2 µM and the TGI (PC-3 prostate) was 31.9 µM. The TGI (RPMI-8226 leukemia) was > 26.9 µM, the TGI (RXF 393 renal) was 8.91 µM and the TGI (SF-268 CNS) was 30.3 µM. The TGI (SF-295 CNS) was 32 µM, the TGI (SF-539 CNS) was 33.1 µM and the TGI (SK-MEL-2 melanoma) was 23 µM. For the same compound, the TGI (SK-MEL-28 melanoma) was 32.1 µM, the TGI (SK-MEL-5 melanoma) was 28.2 µM and the TGI (SK-OV-3 ovarian) was 28.9 µM. For the same compound, the TGI (SN12C renal) was 28.8 µM, the TGI (SNB-19 CNS) was > 56.3 µM and the TGI (SNB-75 CNS) was 27.7 µM. For the same compound, the TGI (SNB-78 CNS) was 32.3 µM, the TGI (SR leukemia) was 8.51 µM and the TGI (SW-620 colon) was 3.09 µM. The TGI (T-47D breast) was 3.34 µM, the TGI (TK-10 renal) was 34.7 µM and the TGI (U251 CNS) was 31 µM. It also gave a TGI (UACC-257 melanoma) of 15.7 µM, a TGI (UACC-62 melanoma) of 13.7 µM and a TGI (UO-31 renal) of 21.2 µM. It also gave a TGI (XF 498 CNS) of 5.81 µM.

For C=CCOC1CC(n2cnc3c(N)ncnc32)OC1CO (stereo not drawn), the TGI (786-0 renal) was > 100 µM, the TGI (A549 NSCLC) was > 100 µM and the TGI (ACHN renal) was > 100 µM. The TGI (CAKI-1 renal) was > 100 µM, the TGI (CCRF-CEM leukemia) was > 100 µM and the TGI (COLO 205 colon) was > 100 µM. The TGI (DLD-1 colon) was > 100 µM, the TGI (DMS 114 small cell lung) was > 100 µM and the TGI (DMS 273 small cell lung) was > 100 µM. For the same compound, the TGI (HCC-2998 colon) was > 100 µM, the TGI (HCT-116 colon) was > 100 µM and the TGI (HCT-15 colon) was > 100 µM. The TGI (HL-60(TB) leukemia) was > 100 µM, the TGI (HOP-62 NSCLC) was > 100 µM and the TGI (HOP-92 NSCLC) was > 100 µM. The TGI (HT29 colon) was > 100 µM, the TGI (IGROV1 ovarian) was > 100 µM and the TGI (K-562 leukemia) was > 100 µM. For the same compound, the TGI (KM12 colon) was > 100 µM, the TGI (KM20L2 colon) was > 100 µM and the TGI (LXFL 529 NSCLC) was > 100 µM. For the same compound, the TGI (M14 melanoma) was > 100 µM, the TGI (M19-MEL melanoma) was > 100 µM and the TGI (MALME-3M melanoma) was > 100 µM. For the same compound, the TGI (MOLT-4 leukemia) was > 100 µM, the TGI (NCI-H226 lung) was > 100 µM and the TGI (NCI-H23 lung) was > 100 µM. For the same compound, the TGI (NCI-H460 lung) was > 100 µM, the TGI (NCI-H522 lung) was > 100 µM and the TGI (OVCAR-3 ovarian) was > 100 µM. For the same compound, the TGI (OVCAR-4 ovarian) was > 100 µM, the TGI (OVCAR-5 ovarian) was > 100 µM and the TGI (OVCAR-8 ovarian) was > 100 µM. The TGI (RPMI-8226 leukemia) was > 100 µM, the TGI (SF-268 CNS) was > 100 µM and the TGI (SF-295 CNS) was > 100 µM. For the same compound, the TGI (SF-539 CNS) was > 100 µM, the TGI (SK-MEL-2 melanoma) was > 100 µM and the TGI (SK-MEL-28 melanoma) was > 100 µM. The TGI (SK-MEL-5 melanoma) was > 100 µM, the TGI (SNB-19 CNS) was > 100 µM and the TGI (SNB-75 CNS) was > 100 µM. The TGI (SR leukemia) was > 100 µM, the TGI (SW-620 colon) was > 100 µM and the TGI (TK-10 renal) was > 100 µM. For the same compound, the TGI (U251 CNS) was > 100 µM, the TGI (UACC-257 melanoma) was > 100 µM and the TGI (UACC-62 melanoma) was > 100 µM. For the same compound, the TGI (UO-31 renal) was > 100 µM and the TGI (XF 498 CNS) was > 100 µM.

Reference: PubChem BioAssay (NCI)
